Patent US20260217735A1, “HETEROCYCLES AND USES THEREOF” (Kumquat Biosciences Inc., priority 2023, published 2026)
pIC50: −log10 of the molar value.

How the values were obtained:
MiaPaca2 cells = test: Ras cellular assay, growth of cells with K-Ras G12C mutation; format: cell-based; settings: Homo sapiens, MIA PaCa-2; cell proliferation assay; bins ≤500 nM / >500 nM; read-out: Inhibition of MiaPaca2 Cells (IC50)
Protocol: For example, this assay can be also used to assess selective growth inhibition of a mutant Ras protein relative to a wildtype or different mutant Ras protein.
MIA PaCa-2 (ATCC CRL-1420) and NCI-H1792 (ATCC CRL-5895) cell lines comprise a G12C mutation and can be used to assess Ras cellular signaling in vitro, e.g., in response to an inhibitor compound of the present disclosure. […] MIA PaCa-2 culture medium is prepared with DMEM/Ham's F12 (e.g., with stable glutamine, 10% FCS, and 2.5% horse serum. NCI-H1792 culture medium is prepared with RPMI 1640 (e.g., with stable glutamine) and 10% FCS.
On a first day (e.g., Day 1), Softagar (Select Agar, Invitrogen, 3% in ddH2O autoclaved) is boiled and tempered at 48° C. Appropriate culture medium (i.e., medium) is tempered to 37° C. Agar (3%) is diluted 1:5 in medium (=0.6%) and plated into 96 well plates (Corning, #3904), then incubated at room temperature for agar solidification. A 3% agar is diluted to 0.25% in medium (1:12 dilution) and tempered at 42° C. Cells are trypsinized, counted, and tempered at 37° C. The cells (e.g., MIA PaCa-2 at about 125-150 cells, NCI-H1792 at about 1000 cells) are resuspended in […] 0.25% Agar and plated, followed by incubation at room temperature for agar solidification. The wells are overlaid with […] of the medium. Sister wells in a separate plate are plated for time zero determination. All plates are incubated overnight at 37° C. and 5% CO2.
On a second day (e.g., Day 2), time zero values are measured. A […] volume of Cell Titer 96 Aqueous Solution (Promega) is added to each well and incubated in the dark at 37° C. and 5% CO2. Absorption can be measured at 490 nm and reference wavelength 660 nm. DMSO-prediluted test compounds are added to wells of interest, e.g., with HP Dispenser, to one or more desired concentrations (e.g., a final DMSO concentration of 0.3%).
On a tenth day (e.g., Day 10), absorption by wells treated with the test compounds and control wells are measured with, for example, Cell Titer 96 AQueous and analyzed in comparison to the time zero measurements. The IC50 values are determined using the four parameter fit. The resulting IC50 value is a measurement of the ability of the test compound to reduce cell growth of Ras-driven cells (e.g., tumor cell lines) in vitro and/or in vivo.

KRAS G12S = biological target: T1, KRAS G12S (Homo sapiens, UniProt P01116, G12S); test: HTRF assay, KRAS G12S interaction with SOS1; format: biochemical; settings: bins <500 nM / 500 nM to 1000 nM, read-out: Inhibition of KRAS G12S (IC50)
T1 construct: made in house; host or cells: E. coli, e.g. BL21 (DE3)
T1 sequence (P01116 1-188 isoform P01116-2 G12S): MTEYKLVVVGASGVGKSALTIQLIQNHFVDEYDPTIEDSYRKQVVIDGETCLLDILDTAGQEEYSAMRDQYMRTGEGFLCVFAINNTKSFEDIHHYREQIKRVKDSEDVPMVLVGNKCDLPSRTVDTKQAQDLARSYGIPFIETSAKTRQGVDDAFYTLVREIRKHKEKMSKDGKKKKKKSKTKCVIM

KRAS G12D = biological target: T2, KRAS G12D (Homo sapiens, UniProt P01116, G12D); test: HTRF assay, KRAS G12D interaction with SOS1; format: biochemical; settings: bins <500 nM / 500 nM to 1000 nM, read-out: Inhibition of KRAS G12D (IC50)
T2 construct: made in house; host or cells: E. coli, e.g. BL21 (DE3)
T2 sequence (P01116 1-188 isoform P01116-2 G12D): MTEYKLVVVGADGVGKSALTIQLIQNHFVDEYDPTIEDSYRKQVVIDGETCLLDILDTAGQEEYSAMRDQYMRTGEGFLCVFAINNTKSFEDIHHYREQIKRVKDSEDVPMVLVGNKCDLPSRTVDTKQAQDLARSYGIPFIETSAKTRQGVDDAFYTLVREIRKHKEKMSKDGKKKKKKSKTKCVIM

KRAS G12V = biological target: T3, KRAS G12V (Homo sapiens, UniProt P01116, G12V); test: HTRF assay, KRAS G12V interaction with SOS1; format: biochemical; settings: bins <500 nM / 500 nM to 1000 nM, read-out: Inhibition of KRAS G12V (IC50)
T3 construct: made in house; host or cells: E. coli, e.g. BL21 (DE3)
T3 sequence (P01116 1-188 isoform P01116-2 G12V): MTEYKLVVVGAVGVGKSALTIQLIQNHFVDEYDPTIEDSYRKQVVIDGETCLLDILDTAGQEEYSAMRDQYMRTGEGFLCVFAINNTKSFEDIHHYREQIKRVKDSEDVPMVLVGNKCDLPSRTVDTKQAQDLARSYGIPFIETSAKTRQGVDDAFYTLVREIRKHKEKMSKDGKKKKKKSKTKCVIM

KRAS WT = biological target: T4, KRAS WT (Homo sapiens, UniProt P01116); test: HTRF assay, wildtype KRAS interaction with SOS1; format: biochemical; settings: bins <500 nM / 500 nM to 1000 nM, read-out: Inhibition of KRAS WT (IC50)
T4 construct: made in house; host or cells: E. coli, e.g. BL21 (DE3)
T4 sequence (P01116 1-188 isoform P01116-2): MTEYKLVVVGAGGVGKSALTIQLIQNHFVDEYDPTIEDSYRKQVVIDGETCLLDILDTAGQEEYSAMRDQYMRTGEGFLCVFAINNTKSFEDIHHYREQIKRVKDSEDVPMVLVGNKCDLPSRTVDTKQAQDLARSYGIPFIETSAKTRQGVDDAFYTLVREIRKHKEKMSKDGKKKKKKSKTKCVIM

Row | SMILES | pIC50 (MiaPaca2 cells) | pIC50 (KRAS G12S) | pIC50 (KRAS G12D) | pIC50 (KRAS G12V) | pIC50 (KRAS WT)
1 | CCN(c1nc(OC[C@@]23CCCN2C[C@H](F)C3)nc2c(F)c(-c3ccc(F)c4sc(N)c(C#N)c34)c(C(F)(F)F)cc12)[C@@H]1CCN(C(=O)n2cnc(C)c2C)[C@@H]1C [Compound 110, 2-amino-4-(4-(((2R,3R)-1-(4,5-dimethyl-1H-imidazole-1-carbonyl)-2-methylpyrrolidin-3-yl)(ethyl)amino)-8-fluoro-2-(((2R,7aS)-2-fluorotetrahydro-1H-pyrrolizin-7a(5H)-yl)methoxy)-6-(trifluoromethyl)quinazolin-7-yl)-7-fluorobenzo[b]thiophene-3-carbonitrile] | ≥ 6.30 | > 6.30 | > 6.30 | > 6.30 | > 6.30
2 | Cc1c(C#N)ncn1C(=O)N1C[C@]2(CCCCN(c3nc(OC[C@@]45CCCN4C[C@H](F)C5)nc4c(F)c(-c5ccc(F)c6sc(N)c(C#N)c56)c(Cl)cc34)C2)[C@H]1C1(C)CC1 [Compound 111, 1-((1R,4R)-6-(7-(2-amino-3-cyano-7-fluorobenzo[b]thiophen-4-yl)-6-chloro-8-fluoro-2-(((2R,7aS)-2-fluorotetrahydro-1H-pyrrolizin-7a(5H)-yl)methoxy)quinazolin-4-yl)-1-(1-methylcyclopropyl)-2,6-diazaspiro[3.6]decane-2-carbonyl)-5-methyl-1H-imidazole-4-carbonitrile] | ≥ 6.30 | > 6.30 | > 6.30 | > 6.30 | > 6.30
3 | C[C@@H]1[C@H](N(C)c2nc(OC[C@@]34CCCN3C[C@H](F)C4)nc3c(F)c(-c4ccc(F)c5sc(N)c(C#N)c45)c(Cl)cc23)CCN1C(=O)n1cnc(F)n1 [Compound 112, 2-amino-4-(6-chloro-8-fluoro-4-(((2R,3R)-1-(3-fluoro-1H-1,2,4-triazole-1-carbonyl)-2-methylpyrrolidin-3-yl)(methyl)amino)-2-(((2R,7aS)-2-fluorotetrahydro-1H-pyrrolizin-7a(5H)-yl)methoxy)quinazolin-7-yl)-7-fluorobenzo[b]thiophene-3-carbonitrile] | ≥ 6.30 | > 6.30 | > 6.30 | > 6.30 | > 6.30
4 | CCN(c1nc(OC[C@@]23CCCN2C[C@H](F)C3)nc2c(F)c(-c3ccc(F)c4sc(N)c(C#N)c34)c(Cl)cc12)[C@@H]1CCN(C(=O)n2cnc(F)n2)[C@@H]1C [Compound 115, 2-amino-4-(6-chloro-4-(ethyl((2R,3R)-1-(3-fluoro-1H-1,2,4-triazole-1-carbonyl)-2-methylpyrrolidin-3-yl)amino)-8-fluoro-2-(((2R,7aS)-2-fluorotetrahydro-1H-pyrrolizin-7a(5H)-yl)methoxy)quinazolin-7-yl)-7-fluorobenzo[b]thiophene-3-carbonitrile] | ≥ 6.30 | > 6.30 | > 6.30 | > 6.30 | > 6.30
5 | Cc1nccn1C(=O)N1CC[C@@]12CCN(c1nc(OC[C@@]34CCCN3C[C@H](F)C4)nc3c(F)c(-c4ccc(F)c5sc(N)c(C#N)c45)c(Cl)cc13)C2 [Compound 116, 2-amino-4-(6-chloro-8-fluoro-2-(((2R,7aS)-2-fluorotetrahydro-1H-pyrrolizin-7a(5H)-yl)methoxy)-4-((R)-1-(2-methyl-1H-imidazole-1-carbonyl)-1,6-diazaspiro[3.4]octan-6-yl)quinazolin-7-yl)-7-fluorobenzo[b]thiophene-3-carbonitrile] | ≥ 6.30 | > 6.30 | > 6.30 | > 6.30 | > 6.30
6 | CN(c1nc(OC[C@@]23CCCN2C[C@H](F)C3)nc2c(F)c(-c3ccc(F)c4sc(N)c(C#N)c34)c(Cl)cc12)[C@@H]1CCN(C(=O)n2ccnc2)C1 [Compound 118, 4-(4-(((R)-1-(1H-imidazole-1-carbonyl)pyrrolidin-3-yl)(methyl)amino)-6-chloro-8-fluoro-2-(((2R,7aS)-2-fluorotetrahydro-1H-pyrrolizin-7a(5H)-yl)methoxy)quinazolin-7-yl)-2-amino-7-fluorobenzo[b]thiophene-3-carbonitrile] | ≥ 6.30 | > 6.30 | > 6.30 | > 6.30 | > 6.30
7 | N#Cc1c(N)sc2c(F)ccc(-c3c(Cl)cc4c(N5CCCCC6(CN(C(=O)n7ccnc7Br)C6)C5)nc(OC[C@@]56CCCN5C[C@H](F)C6)nc4c3F)c12 [Compound 119, 2-amino-4-(4-(2-(2-bromo-1H-imidazole-1-carbonyl)-2,6-diazaspiro[3.6]decan-6-yl)-6-chloro-8-fluoro-2-(((2R,7aS)-2-fluorotetrahydro-1H-pyrrolizin-7a(5H)-yl)methoxy)quinazolin-7-yl)-7-fluorobenzo[b]thiophene-3-carbonitrile] | ≥ 6.30 | > 6.30 | > 6.30 | > 6.30 | > 6.30
8 | Cc1nccn1C(=O)N1CC[C@@H](N(C)c2nc(OC[C@@]34CCCN3C[C@H](F)C4)nc3c(F)c(-c4ccc(F)c5sc(N)c(C#N)c45)c(Cl)cc23)[C@H]1C [Compound 120, 2-amino-4-(6-chloro-8-fluoro-2-(((2R,7aS)-2-fluorotetrahydro-1H-pyrrolizin-7a(5H)-yl)methoxy)-4-(methyl((2R,3R)-2-methyl-1-(2-methyl-1H-imidazole-1-carbonyl)pyrrolidin-3-yl)amino)quinazolin-7-yl)-7-fluorobenzo[b]thiophene-3-carbonitrile] | ≥ 6.30 | > 6.30 | > 6.30 | > 6.30 | > 6.30
9 | Cc1c(C#N)ncn1C(=O)N1CC[C@@]12CCN(c1nc(OC[C@@]34CCCN3C[C@H](F)C4)nc3c(F)c(-c4ccc(F)c5sc(N)c(C#N)c45)c(Cl)cc13)C2 [Compound 121, 1-((4R)-6-(7-(2-amino-3-cyano-7-fluorobenzo[b]thiophen-4-yl)-6-chloro-8-fluoro-2-(((2R,7aS)-2-fluorotetrahydro-1H-pyrrolizin-7a(5H)-yl)methoxy)quinazolin-4-yl)-1,6-diazaspiro[3.4]octane-1-carbonyl)-5-methyl-1H-imidazole-4-carbonitrile] | ≥ 6.30 | > 6.30 | > 6.30 | > 6.30 | > 6.30
10 | Cc1nccn1C(=O)N1CC2(CCN(c3nc(OC[C@@]45CCCN4C[C@H](F)C5)nc4c(F)c(-c5ccc(F)c6sc(N)c(C#N)c56)c(Cl)cc34)C2)C1 [Compound 123, 2-amino-4-(6-chloro-8-fluoro-2-(((2R,7aS)-2-fluorotetrahydro-1H-pyrrolizin-7a(5H)-yl)methoxy)-4-(2-(2-methyl-1H-imidazole-1-carbonyl)-2,6-diazaspiro[3.4]octan-6-yl)quinazolin-7-yl)-7-fluorobenzo[b]thiophene-3-carbonitrile] | ≥ 6.30 | > 6.30 | > 6.30 | > 6.30 | > 6.30
11 | C[C@@H]1[C@H](N(C)c2nc(OC[C@@]34CCCN3C[C@H](F)C4)nc3c(F)c(-c4ccc(F)c5sc(N)c(C#N)c45)c(Cl)cc23)CCN1C(=O)n1ccnc1 [Compound 124, 4-(4-(((2R,3R)-1-(1H-imidazole-1-carbonyl)-2-methylpyrrolidin-3-yl)(methyl)amino)-6-chloro-8-fluoro-2-(((2R,7aS)-2-fluorotetrahydro-1H-pyrrolizin-7a(5H)-yl)methoxy)quinazolin-7-yl)-2-amino-7-fluorobenzo[b]thiophene-3-carbonitrile] | ≥ 6.30 | > 6.30 | > 6.30 | > 6.30 | > 6.30
